# Reference: US6663858B1, “In Vivo gene transfer using implanted retroviral producer cells” (The Regents of the University of California, priority 1991, dated 2003)
# Values joined by “and” are separate entries in the source; they are usually repeats but may differ in a detail not shown here. Equal entries are not always repeated. “Also recorded” adds a separate entry of the source.
# Key:
# 9 L brain tumors [1] = experiment: Short-term (17 days) 9 L brain tumor volume after HSV-TK producer cell implantation and GCV; type: in vivo, Fischer 344 rats
# Experimental: (§1) Tumor Cell and Producer Cell Implantation. The 9 L cells were maintained in Dulbecco's modified Eagle's medium with 10% fetal bovine serum, penicillin G (100 units/ml), streptomycin sulfate (100 μg/ml). Brain tumors were established in adult female Fischer 344 rats which were housed and handled in accordance with National Institutes of Health guidelines.
# (§2) In all studies tumors were implanted by an intracerebral injection of 2×10^5 tumor cells into the region of the right caudate nucleus (3 mm lateral, 1 mm anterior to bregma, 4 mm ventral) (Paxinos, G. & Watson, C. (1987) The Rat Brain in Stereotaxic Coordinates (University Press ***).
# Animals in short-term studies underwent a second surgery 3 days after tumor implantation, at which time retroviral producer cells (either 2×10^5 in 4 μl or 2×10^6 in 8 μl, representing an equal, number (1×) or 10 times (10×) the number of injected tumor cells, respectively) were implanted into the established brain tumors and allowed to grow with brain tumor cells for 7 days. Ten days after tumor implantation, subsets of animals were given 0.2 ml intraperitoneal injections of GCV (Syntex, Palo Alto, Calif.) 50 mg/kg once a day for 7 or 14 days. Animals in the short-term experiments were sacrificed after 7 days of GCV administration (17 days after tumor implantation) and then perfused with 4% paraformaldehyde.
# Brain Tumor Analysis. Short-term treatment response was determined by comparing individual brain tumor volumes measured by postmortem stereologic study in groups containing a minimum of five animals.
# (§3) Long-term results were studied in 90-day survival studies with tumor volumes determined in long-term survivors. Stained brain sections were examined and tumor volumes were quantified by stereologic methods (Gundersen, H. J. G., Bagger, P. & Bendtsen, T. F. (1988) APMIS ***96, 857-881). Tumor volumes were compared by the Mann-Whitney U test. In long-term survival experiments (90 days), animals were observed daily and survival data were analyzed by Kaplan-Meier analysis with the Mantel-Cox statistic.
# 9 L brain tumors [2] = experiment: Long-term (90-day) survival of rats with 9 L brain tumors after HSV-TK producer cells and GCV; type: in vivo, Fischer 344 rats; conditions: for treated animals surviving 90 days: both long-term trials combined, HSV-TK producer cells plus GCV
# Experimental: as §1, §2
# Two trials of long-term (90-day) survival were performed. In the first, producer cells (2×10^5), equal to the initial number of tumor cells implanted) were grafted into 3-day-old brain tumors. GCV treatments were started in 12 animals 7 days later (tumor day 10) and continued for 7 days; 8 animals received no GCV. In the second trial, 2×10^5 or 2×10^6 producer cells in 50 μl (representing 1× or 10× the number of injected tumor cells, respectively) were grafted into 3-day-old established brain tumors of 10 animals per group. GCV treatments started 7 days later and were administered for 14 days.
# as §3
# 9 L tumor cells = experiment: Repeat tumor challenge in long-term survivors; type: in vivo, Fischer 344 rats
# Description: Repeat Tumor Challenge. Four animals with long-term tumor regression were studied with repeat tumor challenges 90 days after the initial tumor implantation. Animals underwent repeated intracerebral injections of 2×10^5 9 L tumor cells into the left caudate nucleus and injections of 1×10^6 9 L tumor cells into the right flank. Five normal, naive rats received identical injections of 9 L tumor cells. Animals were sacrificed and perfused 17 days later to determine resulting tumor volumes.
# 9 L brain tumors [3] = conditions: no producer cell injections; Barba et al. 1993; cited from earlier work
# cells carrying HSV-TK = experiment: 3-day cytotoxicity assay, cells carrying HSV-TK; type: cell-based; conditions: 72 h, read-out: inhibitory dose for 50% of the cells
# Experimental: (§4) Similar results were obtained in a 3-day cytotoxicity assay; the inhibitory dose of acyclovir for 50% of the cells lacking the HSV-TK gene was greater than […] for cells carrying HSV-TK.
# [4] = system: C6 glial tumor cells infected with STK, NTK or μTK vector; experiment: Survival of C6 glioma clones carrying HSV-TK vectors in increasing concentrations of acyclovir; type: cell-based; conditions: C6 clones infected with each vector (STK, NTK, μTK); acyclovir 0.1 to 100 μg/ml for 3 days
# Experimental: Murine retroviral vectors carrying the HSV-TK gene, the STK, NTK, and μTK vectors, were obtained from Dr. F. L. Moolten. The plasmid forms of the vectors were transfected into −2 cells (Mann et al., Cell 33:153-159 (1983)); selection with 1 mg/ml of the neomycin analog G418 permitted the isolation of clone producer lines that yielded viruses capable of transducing G418 resistance and HSV-TK activity. Virus titers were determined by the limiting dilution method and found to be greater than 50 pfu/cell. As expected with −2 cells, no replication-competent virus was detected.
# The replicative defective viruses produced by −2 cells were used to infect C6 glial tumor cells. The cells to be infected were grown in DME plus 10% fetal bovine serum plus 4 μg/ml of polybrene and were grown to about 60-70% confluence in a T75 flask or about 2×10^6 cells/ml. The cells were infected with about 100 pfu/cell of virus. The infected cells were cultured for 24 hours with Dulbecco's Medium containing 10% fetal bovine serum and antibiotics; afterwards they were exposed to 1 mg of G418/ml to select for cells that expressed vector-derived genes.
# Clones resulting from infection of C6 glial cells with each of the vectors were exposed to acyclovir at concentrations ranging from 0.1 to 100 μg/ml for 3 days. Each vector rendered the glial cells sensitive to acyclovir.
# [5] = system: cells lacking the HSV-TK gene; experiment: 3-day cytotoxicity assay, cells lacking the HSV-TK gene; type: cell-based; conditions: 72 h, read-out: inhibitory dose for 50% of the cells
# Experimental: as §4
# [6] = HSV-TK producer cells plus GCV, 17-day-old tumors
SMILES,"tumor volume / tumor regression versus rats not treated with GCV (9 L brain tumors [1]; HSV-TK producer cells (1:1 or 10:1) implanted day 3, GCV 50 mg/kg per day i.p. for 7 days, day 17)",treated animals with focal regression of part of the tumor adjacent to unaffected tumor (9 L brain tumors [1]; [6]),treated animals with unaffected tumors (9 L brain tumors [1]; [6]),"animals alive after 90 days in each experimental group, second trial (9 L brain tumors [2]; 1× or 10× producer cells, 10 animals per group, GCV for 14 days)","treated animals surviving 90 days, first trial (9 L brain tumors [2]; 2×10^5 producer cells, GCV for 7 days from tumor day 10, none of 8 untreated survived longer than 25 days)","tumor volume in the third surviving treated animal, first trial (9 L brain tumors [2]; 90 days) [mm^3]","residual tumor volume in two of the surviving treated animals, first trial (9 L brain tumors [2]; 90 days, small intracerebral cysts) [mm^3]","survival, GCV for 7 versus 14 days (9 L brain tumors [2]; both groups receiving 1× producer cells)","survival, 1× versus 10× producer cells (9 L brain tumors [2]; both groups receiving GCV for 14 days)",treated animals surviving 90 days (9 L brain tumors [2]) [%],treated animals surviving 90 days (9 L brain tumors [2]; controls 0/8),"survival of treated versus control animals (9 L brain tumors [2]; combined treated groups, Kaplan-Meier, P<0.002)","flank tumor nodules after repeat challenge (9 L tumor cells; 1×10^6 9 L cells into right flank, 17 days, flank tumors in four of five naive rats)","tumor volume at the site of the secondary tumor cell implants (left hemisphere) (9 L tumor cells; 2×10^5 9 L cells, 17 days after repeat challenge, naive animals 129-169) [mm^3]","tumor volume at the site of the initial tumor cell implantation in long-term survivors (9 L tumor cells; four long-term survivors of second trial, 17 days after repeat challenge)","growth of repeat tumor injections in rats surviving 90 days (9 L tumor cells; repeat 9 L injections after HSV-TK producer cells and GCV, tumors grew in naive rats)",tumor regression in animals treated with GCV without producer cell injections (9 L brain tumors [3]),IC50 (cells carrying HSV-TK) [µg/mL],"sensitivity of glial cells to acyclovir (survival, FIG. 2) [4]",IC50 [5] [µg/mL]
"Nc1nc2c(ncn2COC(CO)CO)c(=O)[nH]1 [GCV, 9-((2-hydroxy-1-(hydroxymethyl)ethoxy)methyl) guanine]",Significant tumor regression; also recorded: significantly smaller,about 50%,about 10%,two,3 of 12,62,< 0.2,no difference,No difference in survival,22,7 of 32 and 7/32,highly significant difference; also recorded: significant improvement in survival,failed to detect any tumor nodules,< 0.2,0.6-2.0 mm^3,rejected repeat tumor injections; also recorded: absence of growth of injected tumor cells; also recorded: inhibition of growth of the injected tumor cells,not seen,,,
"Nc1nc2c(ncn2COCCO)c(=O)[nH]1 [acyclovir, 9-((2-hydroxyethoxy)methyl)guanine]",,,,,,,,,,,,,,,,,,0.5,sensitive,> 10
